Data published in US12076315B2 (Clear Creek Bio, Inc., priority 2020, dated 2024).
Entries after “also recorded” stand apart in the source; their conditions may differ. Read-outs that look alike come from different tables or passages of the source.

Details: for Comments: stability of the polymorph: Table 3, solid polymorph of brequinar sodium salt on storage; for Time after which the polymorph converts to Pattern C / Stability of the polymorphic form under ambient conditions (temperature and humidity): sodium salt; for Stability of the polymorphic form under ambient conditions (temperature and humidity): unstable forms convert to Pattern C

| Compound | Comments: stability of the polymorph | Time after which the polymorph converts to Pattern C (at ambient condition) | Stability of the polymorphic form under ambient conditions (temperature and humidity) | Time after which the polymorph converts to Pattern C (closed cap storage) | Stability of the polymorphic form under ambient conditions (temperature and humidity) (listed as polymorphic form C) |
| --- | --- | --- | --- | --- | --- |
| Cc1c(-c2ccc(-c3ccccc3F)cc2)nc2ccc(F)cc2c1C(=O)[O-].[Na+] [Pattern B, 6-Flouro-2-(2′-fluoro-1,1′-biphenyl-4-yl)-3-methyl-4-quinolinecarboxylic acid sodium salt] | hydrate KF 4.8% unstable, | convert to Pattern C after 4 days | unstable | – | – |
| Cc1c(-c2ccc(-c3ccccc3F)cc2)nc2ccc(F)cc2c1C(=O)[O-].[Na+] [Pattern A, 6-Flouro-2-(2′-fluoro-1,1′-biphenyl-4-yl)-3-methyl-4-quinolinecarboxylic acid sodium salt] | – | – | metastable | – | – |
| Cc1c(-c2ccc(-c3ccccc3F)cc2)nc2ccc(F)cc2c1C(=O)[O-].[Na+] [Pattern J, 6-Flouro-2-(2′-fluoro-1,1′-biphenyl-4-yl)-3-methyl-4-quinolinecarboxylic acid sodium salt] | Unstable, convert to Pattern | – | unstable | C after 2 weeks (closed cap | – |
| Cc1c(-c2ccc(-c3ccccc3F)cc2)nc2ccc(F)cc2c1C(=O)[O-].[Na+] [Pattern C, 6-Flouro-2-(2′-fluoro-1,1′-biphenyl-4-yl)-3-methyl-4-quinolinecarboxylic acid sodium salt] | – | – | – | – | stable; also recorded: most stable |
| Cc1c(-c2ccc(-c3ccccc3F)cc2)nc2ccc(F)cc2c1C(=O)[O-].[Na+] [Pattern G, 6-Flouro-2-(2′-fluoro-1,1′-biphenyl-4-yl)-3-methyl-4-quinolinecarboxylic acid sodium salt] | 15.3%), unstable, convert | to Pattern C after 2 weeks | unstable | – | – |
| Cc1c(-c2ccc(-c3ccccc3F)cc2)nc2ccc(F)cc2c1C(=O)[O-].[Na+] [Pattern I, 6-Flouro-2-(2′-fluoro-1,1′-biphenyl-4-yl)-3-methyl-4-quinolinecarboxylic acid sodium salt] | KF 7.3%, unstable, | 2 days at ambient condition. | unstable | – | – |
| Cc1c(-c2ccc(-c3ccccc3F)cc2)nc2ccc(F)cc2c1C(=O)[O-].[Na+] [Pattern E, 6-Flouro-2-(2′-fluoro-1,1′-biphenyl-4-yl)-3-methyl-4-quinolinecarboxylic acid sodium salt] | – | – | unstable | Pattern C after 1 week | – |
| Cc1c(-c2ccc(-c3ccccc3F)cc2)nc2ccc(F)cc2c1C(=O)[O-].[Na+] [Pattern D, 6-Flouro-2-(2′-fluoro-1,1′-biphenyl-4-yl)-3-methyl-4-quinolinecarboxylic acid sodium salt] | – | C after 3 days at ambient | unstable | – | – |
| Cc1c(-c2ccc(-c3ccccc3F)cc2)nc2ccc(F)cc2c1C(=O)[O-].[Na+] [Pattern F, 6-Flouro-2-(2′-fluoro-1,1′-biphenyl-4-yl)-3-methyl-4-quinolinecarboxylic acid sodium salt] | – | – | unstable | Pattern C after 1 week | – |
